Patent US5962487A, “Antipicornaviral compounds and methods for their use and preparation” (Agouron Pharmaceuticals, Inc., priority 1997, dated 1999)

Columns and labels:
HRV-14 = assay: Antirhinoviral HI-HeLa Cell Culture Assay (cell protection, XTT), HRV-14; format: cell-based, human rhinovirus; conditions: for TI: CC50/EC50, HRV serotype-14, 2880 min; for EC50: Rhinovirus B, HRV14, 48 h, HRV serotype-14 infected HI-HeLa cells, XTT, two days
Protocol: In the Cell Protection Assay, the ability of compounds to protect cells against HRV infection was measured by the XTT dye reduction method. This method is described in O. S. Weislow, R. Kiser, D. L. Fine, J. Bader, R. H. Shoemaker, and M. R. Boyd, J. Natl. Cancer Inst. 1989, 81, 577-586, which document is entirely incorporated herein by reference.
(§1) HI-HeLa cells were infected with HRV-14 (unless otherwise noted) at a multiplicity of infection (m.o.i.) of 0.13 (virus particles/cell) or mock-infected with medium only. Infected or mock-infected cells were resuspended at 8×10^5 cells per mL and incubated with appropriate concentrations of compounds of formulas I and II. Two days later, XTT/PMS was added to test plates, and the amount of formazan produced was quantified spectrophotometrically at 450/650 nm. The EC50 was calculated as the concentration of compound that increased the percentage of formazan production in compound-treated, virus-infected cells to 50% of that produced by compound-free mock-infected cells. The 50% cytotoxic dose (CC50) was calculated as the concentration of compound that decreased the percentage of formazan produced in compound-treated, mock-infected cells to 50% of that produced in compound-free, mock-infected cells. The therapeutic index (TI) was calculated by dividing the CC50 by the EC50.
(§2) All strains of human rhinovims (HRV) for use in this assay were purchased from American Type Culture Collection (ATCC), except for HRV serotype-14, which was produced from the infectious cDNA clone, constructed and supplied to us by Dr. Roland Rueckert at the Institute for Molecular Virology, University of Wisconsin, Madison, Wis. HRV stocks were propagated, and antiviral assays were performed in HI-HeLa (ATCC). Cells were grown in Minimal Essential Medium, available from Life Technologies, with 10% fetal bovine serum.
The compounds were tested against control compounds WIN 51711, WIN 52084, and WIN 54954, all obtained from Sterling-Winthrop Pharmaceuticals, and control compound Pirodavir, obtained from Janssen Pharmaceuticals. Antiviral data obtained for the test compounds are shown in Table 2 where all data are for HRV serotype-14 unless otherwise noted in parentheses.

[1] = molecular target: T1, Rhinovirus 3C protease (RVP) serotype-14 (Human rhinovirus 14, UniProt P03303); assay: Inhibition of Rhinovirus Protease, serotype 14 (FRET assay); format: biochemical; conditions: for Ki: 10 minute preincubation with 50 nM RVP prior to addition of substrate, read-out: INHIB (Ki); for kinact/KI: read-out: kobs/I
T1 construct: Recombinant Rhinovirus 3C proteases from serotypes 14, 16, 2 or 89 were prepared; made in house
T1 sequence (P03303 1538-1719): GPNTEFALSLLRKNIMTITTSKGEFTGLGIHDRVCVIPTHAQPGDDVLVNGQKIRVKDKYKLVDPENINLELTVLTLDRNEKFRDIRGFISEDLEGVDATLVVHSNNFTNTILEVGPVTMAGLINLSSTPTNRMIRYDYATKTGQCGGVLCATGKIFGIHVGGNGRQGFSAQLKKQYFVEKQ
Protocol: Stock solutions (50 mM, in DMSO) of various compounds were prepared; dilutions were in the same solvent. Recombinant Rhinovirus 3C proteases from serotypes 14, 16, 2 or 89 were prepared by the following standard chromatographic procedures: (1) ion exchange using Q Sepharose Fast Flow from Pharmacia; (2) affinity chromatography using Affi-Gel Blue from Biorad; and (3) sizing using Sephadex G-100 from Pharmacia. Assays contained 2% DMSO, 50 mM tris pH 7.6, 1 mM EDTA, a compound at the indicated concentrations, approximately 1 μM substrate, and 50-100 nM protease. For Ki determinations, the compound and the enzyme were preincubated for 10 minutes at 30° C. prior to addition of the substrate (substrate start). The kobs/I values were obtained from reactions initiated by addition of enzyme rather than substrate. RVP activity is measured in the fluorescence resonance energy transfer assay. The substrate was (N-terminal) DABCYL-(Gly-Arg-Ala-Val-Phe-Gln-Gly-Pro-Val-Gly)-EDANS. In the uncleaved peptide, the EDANS fluorescence was quenched by the proximal DABCYL moiety. When the peptide was cleaved, the quenching was relieved, and activity was measured as an increase in fluorescence signal.
In the above table, all data is for RVP serotype-14 unless otherwise noted in parentheses. All strains of human rhinovirus (HRV) were purchased from American Type Culture Collection (ATCC), except for serotype 14, which was produced from the infectious cDNA clone constructed and supplied to us by Dr. Roland Rueckert at the Institute for Molecular Virology, University of Wisconsin, Madison, Wis. The column designated INHIB represents the percent inhibition, with the concentration of the compound in μM indicated in parentheses, unless Ki was assigned as designated by (Ki), at 10 minute preincubation with 50 nM RVP prior to addition of substrate was used. The data in the column designated kobs/I was measured from progress curves in enzyme start experiments.

in vitro = format: cell-based; conditions: human, hi-hela cells
Protocol: as §1, §2

CCOC(=O)/C=C/[C@H](CCC(N)=O)NC(=O)[C@@H]1[C@@H](C)CCN1C(=O)[C@H](CC(C)C)NC(=O)OCc1ccccc1 [Compound 21, Ethyl-3-[CBZ-L-Leu-L-(3S-Methyl)-Pro-L-Gln]-E-Propenoate]
TI (HRV-14): > 15
EC50 (HRV-14): 22 µM
Ki ([1]; RVP serotype-14): 50 µM
kinact/KI [1]: 256 M⁻¹ s⁻¹
CC50 at 48 h (in vitro): > 320 µM

CON(C)C(=O)/C=C/[C@H](CCC(N)=O)NC(=O)[C@@H]1[C@@H](c2ccccc2)CCN1C(=O)[C@H](CC(C)C)NC(=O)OCc1ccccc1 [Compound 22, N-Methoxy, N-Methyl-3-[CBZ-L-Leu L-(3R-Phenyl)-Pro-L-Gln]-E-Propenamide]
TI (HRV-14): > 2
EC50 (HRV-14): 178 µM
kinact/KI [1]: 100 M⁻¹ s⁻¹
CC50 at 48 h (in vitro): > 320 µM

CCOC(=O)C=CC(CCC(N)=O)NC(=O)C1CC(OC(C)(C)C)CN1C(=O)C(CC(C)C)NC(=O)OCc1ccccc1 (stereo not drawn) [Compound 23]
TI (HRV-14): 22
EC50 (HRV-14): 10 µM
Ki ([1]; RVP serotype-14): 60 µM
kinact/KI [1]: 605 M⁻¹ s⁻¹
CC50 at 48 h (in vitro): 224 µM

CC(C)C[C@H](NC(=O)OCc1ccccc1)C(=O)N1CCCC[C@H]1C(=O)N[C@H](/C=C/C(=O)N1CCCCO1)CCC(N)=O [Compound 26, 1-[1',2'-Oxazin-2'-yl]-3-(CBZ-L-Leu-L-Pip-L-Gln)-E-Propenone]
TI (HRV-14): > 5
EC50 (HRV-14): 56 µM
Ki ([1]; RVP serotype-14): 34 µM
kinact/KI [1]: 875 M⁻¹ s⁻¹
CC50 at 48 h (in vitro): > 320 µM

CCOC(=O)/C=C/[C@H](CCC(N)=O)NC(=O)Cn1c(-c2ccccc2)ncc(NC(=O)OCc2ccccc2)c1=O [Compound 30, Ethyl-3-([(5-CBZ-Amino)-2-Phenyl-6-Oxo-1,6-Dihydro-1-Pyrimidinyl]-L-Gln)-E-Propenoate]
TI (HRV-14): 25
EC50 (HRV-14): 7.2 µM
Ki ([1]; RVP serotype-14): 55 µM
kinact/KI [1]: 163 M⁻¹ s⁻¹
CC50 at 48 h (in vitro): 177 µM

CCOC(=O)/C=C/[C@H](CCC(N)=O)NC(=O)Cn1c(-c2ccccc2)ncc(N)c1=O [Compound 31, Ethyl-3-{[(5-Amino)-2-Phenyl-6Oxo-1,6-Dihydro-1-Pyrimidinyl]-L-Gln}-Propenoate]
TI (HRV-14): > 6
EC50 (HRV-14): 56 µM
kinact/KI [1]: 39 M⁻¹ s⁻¹
CC50 at 48 h (in vitro): > 320 µM

CCOC(=O)/C=C/[C@H](CCC(N)=O)NC(=O)[C@H](Cc1ccccc1)n1cc[nH]c1=O [Compound 32, Ethyl-3-(L-N-[(1,3-Dihydro-imidazol-2-one)-Phe]-L-Gln)-E-Propenoate]
TI (HRV-14): > 2
EC50 (HRV-14): 158 µM
kinact/KI [1]: 98 M⁻¹ s⁻¹
CC50 at 48 h (in vitro): > 320 µM

CCOC(=O)/C=C/[C@H](CCC(N)=O)NC(=O)[C@H](Cc1ccccc1)n1ccn(NC(=O)OCc2ccccc2)c1=O [Compound 33, Ethyl-3-(CBZ-amino-L-N-[(1,3-Dihydro-imidazol-2-one)-Phe]-L-Gln)-E-Propenoate]
EC50 (HRV-14): > 320 µM
inhibition at 10 µM ([1]; RVP serotype-14, 10 μM compound, 10 minute preincubation with 50 nM RVP, read-out: INHIB (percent inhibition)): 86%
kinact/KI [1]: 361 M⁻¹ s⁻¹
CC50 at 48 h (in vitro): > 320 µM

CCOC(=O)/C=C/[C@H](CCC(N)=O)NC(=O)[C@H](Cc1ccccc1)N(C)C(=O)[C@H](CC(C)C)NC(=O)SC(C)C [Compound 38]
TI (HRV-14): > 278
EC50 (HRV-14): 0.36 µM
kinact/KI [1]: 18200 M⁻¹ s⁻¹
CC50 at 48 h (in vitro): > 100 µM

CCOC(=O)/C(C)=C/[C@H](CCC(N)=O)NC(=O)[C@H](Cc1ccccc1)N(C)C(=O)[C@H](CC(C)C)NC(=O)SC(C)C [Compound 39]
TI (HRV-14): 113
EC50 (HRV-14): 1.6 µM
kinact/KI [1]: 2330 M⁻¹ s⁻¹
CC50 at 48 h (in vitro): 180 µM

CCOC(=O)/C=C/[C@H](CCC(N)=O)NC(=O)[C@H](Cc1ccccc1)N(C)C(=O)[C@H](CC(C)C)NC(=O)SCC1CCCCC1 [Compound 40]
TI (HRV-14): 141
EC50 (HRV-14): 0.32 µM
kinact/KI [1]: 12100 M⁻¹ s⁻¹
CC50 at 48 h (in vitro): 45 µM

CCOC(=O)/C(C)=C/[C@H](CCC(N)=O)NC(=O)[C@H](Cc1ccccc1)N(C)C(=O)[C@H](CC(C)C)NC(=O)SCC1CCCCC1 [Compound 41]
TI (HRV-14): 9
EC50 (HRV-14): 2 µM
kinact/KI [1]: 2350 M⁻¹ s⁻¹
CC50 at 48 h (in vitro): 18 µM

CCOC(=O)/C=C/[C@H](CCC(N)=O)NC(=O)[C@H](Cc1ccccc1)N(C)C(=O)[C@H](CC(C)C)NC(=O)SC1CCCCC1 [Compound 42]
TI (HRV-14): 111
EC50 (HRV-14): 0.45 µM
kinact/KI [1]: 15000 M⁻¹ s⁻¹
CC50 at 48 h (in vitro): 50.1 µM

CCOC(=O)/C(C)=C/[C@H](CCC(N)=O)NC(=O)[C@H](Cc1ccccc1)N(C)C(=O)[C@H](CC(C)C)NC(=O)SC1CCCCC1 [Compound 43]
TI (HRV-14): 16
EC50 (HRV-14): 3.5 µM
kinact/KI [1]: 2200 M⁻¹ s⁻¹
CC50 at 48 h (in vitro): 56.2 µM

CCOC(=O)/C=C/[C@H](CCC(N)=O)NC(=O)[C@H](Cc1ccccc1)N(C)C(=O)[C@H](CC(C)C)NC(=O)SCC(C)C [Compound 44]
TI (HRV-14): 104
EC50 (HRV-14): 0.54 µM
kinact/KI [1]: 12300 M⁻¹ s⁻¹
CC50 at 48 h (in vitro): 56.2 µM

CCOC(=O)/C(C)=C/[C@H](CCC(N)=O)NC(=O)[C@H](Cc1ccccc1)N(C)C(=O)[C@H](CC(C)C)NC(=O)SCC(C)C [Compound 45]
TI (HRV-14): 32
EC50 (HRV-14): 1.78 µM
kinact/KI [1]: 2300 M⁻¹ s⁻¹
CC50 at 48 h (in vitro): 56.2 µM

CCOC(=O)/C=C/[C@H](CCC(N)=O)NC(=O)[C@H](Cc1ccccc1)N(C)C(=O)[C@H](CSc1ccccc1)NC(=O)SC1CCCC1 [Compound 46]
TI (HRV-14): 33
EC50 (HRV-14): 0.54 µM
kinact/KI [1]: 36800 M⁻¹ s⁻¹
CC50 at 48 h (in vitro): 18 µM

CCOC(=O)/C(C)=C/[C@H](CCC(N)=O)NC(=O)[C@H](Cc1ccccc1)N(C)C(=O)[C@H](CSc1ccccc1)NC(=O)SC1CCCC1 [Compound 47]
TI (HRV-14): 14
EC50 (HRV-14): 1.3 µM
kinact/KI [1]: 6500 M⁻¹ s⁻¹
CC50 at 48 h (in vitro): 18 µM

CCOC(=O)/C=C/[C@H](CCC(N)=O)NC(=O)[C@H](Cc1ccc(C)cc1)N(C)C(=O)[C@@H](NC(=O)SC1CCCC1)C(C)(C)C [Compound 48]
TI (HRV-14): > 20
EC50 (HRV-14): 0.5 µM
kinact/KI [1]: 14000 M⁻¹ s⁻¹
CC50 at 48 h (in vitro): > 10 µM

CCOC(=O)/C(C)=C/[C@H](CCC(N)=O)NC(=O)[C@H](Cc1ccc(C)cc1)N(C)C(=O)[C@@H](NC(=O)SC1CCCC1)C(C)(C)C [Compound 49]
TI (HRV-14): 710
EC50 (HRV-14): 0.1 µM
kinact/KI [1]: 1910 M⁻¹ s⁻¹
CC50 at 48 h (in vitro): 71 µM
